US7531195B2, “Schisandrin B preparation” (priority 2005, dated 2009)

Columns and labels:
[1] = tested on: H9c2 cells; assay: Xanthine/xanthine oxidase-induced cytotoxicity (LDH leakage) in H9c2 cells; format: cell-based, rat; settings: 6.25 μM
Method: (§1) H9c2 cells, a permanent cell line derived from cardiac myoblasts of rat embryo, have early been characterized as a suitable model of myocardial cells [Hescheler et al. 1991]. H9c2 cells were cultured as monolayers in Dulbecco's modified Eagle's medium (GIBCO BRL) supplemented with 10% (v/v) fetal bovine serum. The medium contained glucose (4.5 g/L) and glutamine (4.5 mM), supplemented with NaHCO3 (17 mM), penicillin (100 IU/ml), and streptomycin (100 μg/ml). Cells were grown under an atmosphere of 5% CO2 in air at 37° C. The medium was replaced by fresh medium every 2 or 3 days. A stock of cells was grown in a 75 cm culture flask and split before confluence at a subcultivation ratio of 1:10. Cells used for experiments were seeded at a density of 3.75×10^4 cells/well on a 12-well culture plate, and the cells were grown for 24 h to about 80% confluence prior to drug treatment.
Cultured H9c2 cells were treated with (−) Schisandrin B, (+) Schisandrin B or (±) Schisandrin B (dissolved in DMSO) at 6.25 μM (0.2% DMSO final concentration) for increasing periods of time. Control cells were given the vehicle (i.e. DMSO) only. Immediately following the drug or vehicle pretreatment, the cells were challenged with a mixture of xanthine (X) (0.1 mM) and xanthine oxidase (XO) (0.4 U/ml) for 4 h. The control cells were treated with the medium only. After the X/XO challenge, the medium was taken for the measurement of LDH activity, a biochemical index of cellular injury.

[2] = tested on: Hsp25; assay: Hsp25 expression in H9c2 cells (Western blot); format: cell-based, rat; settings: 6.25 μM
Method: as §1
Cultured H9c2 cells were treated with (−) Schisandrin B, (+) Schisandrin B or (±) Schisandrin B (dissolved in DMSO) at 6.25 μM (0.2% DMSO final concentration) for increasing periods of time. Control cells were given the vehicle (i.e. DMSO) only.
Immediately following the drug treatment, the cells were washed twice with 0.5 ml cold PBS and treated with 100 μl lysis buffer containing 20 mM Tris HCl, 3 mM EGTA, 1% Triton X-100, 10% glycerol and 2 mM dithiothreitol, pH 7.5, with freshly added protease inhibitors (1 mM phenylmethylsulfonyl fluoride, 0.1 mM benzamide, 5 μg/ml leupeptin, 5 μg aproptinin and 5 μg/ml pepstain A). The mixture was incubated at 4° C. for 15 min with constant shaking. Then the cells were scraped off from the plate, and the extract was transferred to a microcentrifuge tube for centrifugation at 2,400 g for 3 min at 4° C. The resultant supernatant was used for Hsp analysis. Hsp25 and Hsp70 levels was estimated by Western blot analysis using specific antibodies (anti-Hsp25, catalog #SPA-801; anti-Hsp70, catalog #SPA-812) from StressGen (Vancouver, BC, Canada) following SDS-PAGE analysis cell lysates, using a separating gel of 10% acrylamide as described in Ip et. al. [2001]. Hsp25/27 and Hsp70 (human recombinant proteins from StressGen) and actin (bovine muscle from Sigma) were used as markers for reference. […] All immuno-blots were analyzed by densitometry, and the amounts (arbitrary units) of Hsp were normalized with reference to actin levels (arbitrary units) in the sample.

[3] = tested on: mitochondria of brain, heart, liver and skeletal muscle; assay: Mitochondrial ATP generation capacity in various tissues of young female rats; format: in vivo, rat; settings: 15 days; for ATP generation: (−) Sch B, α-LA, α-Toc at daily 10, 5 and 70 mg/kg respectively
[4] = tested on: mitochondria of brain, heart, liver and skeletal muscle; assay: Mitochondrial reactive oxidant species (ROS) generation in tissues of young adult and middle-aged rats; format: in vivo, rat
Method: Young adult (8-10 week-old) and middle-aged (12-14 month-old retired breeder) female Sprague-Dawley rats were maintained under a 12-h dark/light cycle at about 22° C. and allowed food and water ad libitum. Experimental protocols were approved by the Research Practice Committee at the Hong Kong University of Science & Technology, Hong Kong. Animals were randomly divided into groups, with 5 animals in each. In the treatment groups, rats were intragastrically administered with Sch B (dissolved/suspended in olive oil) at a daily dose of 10 mg/kg for 15 days. The daily dose is approximated to 1.14 mg/kg for humans after adjusting the inter-species difference in drug distribution in the body. Untreated control animals received olive oil only. Twenty-four hours after the last dosing, animals were sacrificed by decapitation and the whole brain, heart ventricular, liver and skeletal muscle (hind limb) tissues were excised and subjected to biochemical analysis. To investigate the effect of (−) Sch B on myocardial ischemia-reperfusion […] injury, rats were intragastrically administered with (−) Sch B at a daily dose of 10 mg/kg for 35 days. Untreated control animals received olive oil only. […]
Mitochondrial pellets were prepared from tissue homogenates by centrifugation at 800×g at 4° C. for 30 min, with purity being determined by measuring the relative specific activities of succinate dehydrogenase and lactate dehydrogenase (LDH) in the supernatant and mitochondrial pellet. […] The protein concentration of mitochondrial fractions was determined using a Bio-Rad protein assay kit.
An aliquot (50 μl) of mitochondrial fraction (50 μg protein/ml) and 60 μl of DCFDA solution (17.5 μM in incubation buffer) were added into wells of a black micro-titer plate. […] Fluorescence intensity (excitation: 485 nm and emission: 535 nm) of the reaction mixture was monitored every 5 min for 60 min. The mitochondrial ROS generation was reflected by the fluorescence intensity of the sample after subtracting the value of a blank sample containing incubation buffer, substrate solution and DCFDA. […]

[5] = X/XO challenge, 16 h post-dosing

COc1cc2c(c(OC)c1OC)-c1c(cc3c(c1OC)OCO3)CC(C)C(C)C2 (single isomer, unassigned; (-)) [(−) Sch B, (−) Schisandrin B]
time of maximum extent of protection against X/XO-induced cell injury (LDH leakage) ([1]; post-dosing): 16 h
LDH Leakage ([1]; X/XO challenge, 0 h post-dosing (unpretreated control)): 34.8 ± 1.13 U/L
LDH Leakage ([1]; X/XO challenge, 4 h post-dosing): 26.0 ± 0.92 U/L
LDH Leakage ([1]; X/XO challenge, 8 h post-dosing): 22.0 ± 0.63 U/L
LDH Leakage [1, 5]: 14.2 ± 0.35 U/L
LDH Leakage, percent protection vs unpretreated control (0 h) [1, 5]: (78%)
LDH Leakage ([1]; X/XO challenge, 24 h post-dosing): 17.5 ± 0.85 U/L
LDH Leakage ([1]; X/XO challenge, 48 h post-dosing): 26.3 ± 0.41 U/L
Hsp 25 Level ([2]; 0 h post-dosing (unpretreated control)): 1722 ± 99 AU
Hsp 25 Level ([2]; 8 h post-dosing): 1386 ± 50 AU
Hsp 25 Level ([2]; 16 h post-dosing): 1432 ± 83 AU
Hsp 25 Level ([2]; 24 h post-dosing): 1956 ± 113 AU
Hsp 25 Level, percent increase vs unpretreated control (0 h) ([2]; 24 h post-dosing): (14%)
Hsp 25 Level ([2]; 48 h post-dosing): 1878 ± 108 AU
time of maximum stimulation of Hsp25 level ([2]; post-dosing): 24 h
ATP generation ([3]; BRAIN): 143 ± 2 percent control
ATP generation ([3]; HEART): 131 ± 4 percent control
ATP generation ([3]; LIVER): 134 ± 5 percent control
change in ATP generation in skeletal muscle tissue ([3]; SKELETAL MUSCLE, 10 mg/kg daily): No detectable change
ATP generation ([3]; SKELETAL MUSCLE): 105 ± 41 percent control
decrease of mitochondrial ROS generation ([4]; middle-aged rats, 10 mg/kg/day x 15, range among tissues): 11-23%
difference in liver mitochondrial ROS generation between control and treated ([4]; middle-aged rats, liver): not statistically significant
suppression of mitochondrial ROS generation ([4]; young adult rats, 10 mg/kg/day x 15, range among all tissues): 16-38%
